Data published in patent US20070128217A1 (priority 2003, published 2007).

How the values were obtained:
[1] = tested on: control sera (pooled serum of ten healthy LUMC hospital workers; commercial negative donor pooled serum from the Dutch bloodbank); format: binding, human; design: Binding of Control serum LUMC to linear peptides / Binding of Control serum Blood-bank to linear peptides / Binding of Control serum LUMC to looped peptides / Binding of Control Serum Blood-Bank to Looped peptides / Binding of Control serum LUMC to linear peptides of the protein M of SARS-CoV Urbani / Binding of Control serum Blood-bank to linear peptides of the protein M of SARS-CoV Urbani / Binding of Control serum LUMC to looped peptides of the protein M of SARS-CoV Urbani / Binding of Control Serum Blood-Bank to Looped peptides of the protein M of SARS-CoV Urbani: unit not given here
[2] = tested on: antibodies in sera from SARS patients (sera 1a, 1b, 2, 6, 37, 62, London, SARS-yellow, SARS-green); format: binding, human; design: Binding of serum 6 to linear peptides of protein X1 of SARS-CoV Urbani / Binding of serum 37 to linear peptides of protein X1 of SARS-CoV Urbani / Binding of serum 6 to looped/cyclic peptide (PEPSCAN-ELISA) / Binding of serum 37 to looped/cyclic peptide (PEPSCAN-ELISA) / Binding of serum 37 to looped/cyclic peptides of protein X1 of SARS-CoV Urbani / Binding of serum 6 to linear peptides of protein X2 / Binding of serum 37 to linear peptides of protein X2 / Binding of serum 37 to looped/cyclic peptides of protein X2 of SARS-CoV Urbani / Binding of serum 6 to linear peptides of protein M of SARS-CoV Urbani / Binding of serum 37 to linear peptides of protein M of SARS-CoV Urbani / Binding of serum 6 to looped/cyclic peptides of protein M of SARS-CoV Urbani / Binding of serum 37 to looped/cyclic peptides of protein M of SARS-CoV Urbani / Binding of serum 6 to linear peptides of protein X3 of SARS-CoV Urbani / Binding of serum 37 to linear peptides of protein X3 of SARS-CoV Urbani / Binding of serum 37 to looped/cyclic peptides of protein X3 of SARS-CoV Urbani / Binding of serum 6 to linear peptides of protein X4 of SARS-CoV Urbani / Binding of serum 37 to linear peptides of protein X4 of SARS-CoV Urbani / Binding of serum 37 to looped/cyclic peptides of protein X4 of SARS-CoV Urbani / Binding of serum 6 to linear peptides of protein X5 of SARS-CoV Urbani / Binding of serum 37 to linear peptides of protein X5 of SARS-CoV Urbani / Binding of serum 37 to looped/cyclic peptides of protein X5 of SARS-CoV Urbani / Binding of serum 6 to linear peptides of protein N of SARS-CoV Urbani / Binding of serum 37 to linear peptides of protein N of SARS-CoV Urbani / Binding of serum 6 to linear peptide (PEPSCAN-ELISA) / Binding of serum 1a to looped/cyclic peptides of protein N of SARS-CoV Urbani / Binding of serum 1b to looped/cyclic peptides of protein N of SARS-CoV Urbani / Binding of serum 2 to looped/cyclic peptides of protein N of SARS-CoV Urbani / Binding of serum 6 to looped/cyclic peptides of protein N of SARS-CoV Urbani / Binding of serum 37 to looped/cyclic peptides of protein N of SARS-CoV Urbani / Binding of serum 62 to looped/cyclic peptides of protein N of SARS-CoV Urbani / Binding of serum London to looped/cyclic peptides of protein N of SARS-CoV Urbani / Binding of serum SARS-green to looped/cyclic peptides of protein N of SARS-CoV Urbani: unit not given here
[3] = tested on: rabbit serum obtained by immunizing a rabbit with the SARS-CoV strain Frankfurt 1; format: binding; design: Binding of a rabbit serum to linear peptides / Binding of a rabbit serum to looped peptides / Rabbit serum linear peptides / Rabbit serum looped peptides / Binding of a rabbit serum to linear peptides of protein N of SARS-CoV Urbani (Rabbit serum linear peptides) / Binding of a rabbit serum to looped/cyclic peptides of protein N of SARS-CoV Urbani (Rabbit serum looped peptides): unit not given here
[4] = tested on: recombinant human anti-SARS-CoV antibody 03-018; format: binding; design: Binding of antibody 03-018 to linear peptides of the N protein of SARS-CoV Urbani / Binding of antibody 03-018 to looped/cyclic peptides of the N protein of SARS-CoV Urbani: unit not given here

| Sequence | Binding of serum 1a to linear peptides of protein N of SARS-CoV Urbani [2] | Binding of serum 1a to looped/cyclic peptides of protein N of SARS-CoV Urbani [2] | Binding of serum 1b to linear peptides of protein N of SARS-CoV Urbani [2] | Binding of serum 1b to looped/cyclic peptides of protein N of SARS-CoV Urbani [2] | Binding of serum 2 to linear peptides of protein N of SARS-CoV Urbani [2] | Binding of serum 2 to looped/cyclic peptides of protein N of SARS-CoV Urbani [2] | Binding of serum 6 to linear peptides of protein N of SARS-CoV Urbani [2] | Binding of serum 6 to looped/cyclic peptides of protein N of SARS-CoV Urbani [2] | Binding of serum 37 to linear peptides of protein N of SARS-CoV Urbani [2] | Binding of serum 37 to looped/cyclic peptides of protein N of SARS-CoV Urbani [2] | Binding of serum 62 to linear peptides of protein N of SARS-CoV Urbani [2] | Binding of serum 62 to looped/cyclic peptides of protein N of SARS-CoV Urbani [2] | Binding of serum London to linear peptides of protein N of SARS-CoV Urbani [2] | Binding of serum London to looped/cyclic peptides of protein N of SARS-CoV Urbani [2] | Binding of serum SARS-green to linear peptides of protein N of SARS-CoV Urbani [2] | Binding of serum SARS-green to looped/cyclic peptides of protein N of SARS-CoV Urbani [2] | Binding of serum SARS-yellow to linear peptides of protein N of SARS-CoV Urbani [2] | Binding of serum SARS-yellow to looped/cyclic peptides of protein N of SARS-CoV Urbani [2] | Binding of a rabbit serum to linear peptides of protein N of SARS-CoV Urbani (Rabbit serum linear peptides) [3] | Binding of a rabbit serum to looped/cyclic peptides of protein N of SARS-CoV Urbani (Rabbit serum looped peptides) [3] | other results |
| --- | --- | --- | --- | --- | --- | --- | --- | --- | --- | --- | --- | --- | --- | --- | --- | --- | --- | --- | --- | --- | --- |
| FPPTEPKKDKKKKTD | 0.2 | 0.2 | 0.1 | 0.1 | 1.3 | 0.2 | 0.2 | 0.1 | 0.6 | 0.4 | 0.7 | 0.2 | 0.6 | 0.2 | 0.1 | 0.0 | 0.6 | 0.1 | 0.1 | 0.1 | Control Serum Blood-Bank Looped peptides [1]: 0.4; Control serum Blood-bank linear peptides [1]: 0.6; Control serum LUMC linear peptides [1]: 0.6; Control serum LUMC looped peptides [1]: 0.3; Binding of antibody 03-018 to linear peptides of the N protein of SARS-CoV Urbani [4]: 0.1; Binding of antibody 03-018 to looped/cyclic peptides of the N protein of SARS-CoV Urbani [4]: 0.2 |
| FPRGQGVPINTNSGP | 0.2 | 0.3 | 0.1 | 0.2 | 0.3 | 0.4 | 0.2 | 0.2 | 0.7 | 0.5 | 0.6 | 0.4 | 0.5 | 0.4 | 0.3 | 0.4 | 0.6 | 0.4 | 0.2 | 0.2 | Binding of Control Serum Blood-Bank to Looped peptides [1]: 0.6; Binding of Control serum Blood-bank to linear peptides [1]: 0.8; Binding of Control serum LUMC to linear peptides [1]: 0.7; Binding of Control serum LUMC to looped peptides [1]: 0.5; Binding of antibody 03-018 to linear peptides of the N protein of SARS-CoV Urbani [4]: 0.1; Binding of antibody 03-018 to looped/cyclic peptides of the N protein of SARS-CoV Urbani [4]: 0.2 |
